The values that follow come from ChEMBL document CHEMBL3227967, “Quantitative structure-activity relationships in 1-aryl-2-(alkylamino)ethanol antimalarials” (J Med Chem, 1979).

The test relates to Plasmodium berghei. Kind of test: Antimalarial activity against Plasmodium berghei. In kind it is functional.

As for `CCCCN(CCCC)CC(O)c1cc(/C=C/c2ccc(C(F)(F)F)cc2)nc(/C=C/c2ccc(C(F)(F)F)cc2)c1` (stereo not given), the “log(1/C)” value is recorded as 3.82.

In the case of `CCCCN(CCCC)CC(O)c1cc(-c2ccc(C(F)(F)F)cc2)nc(-c2ccc(C(F)(F)F)cc2)c1` (stereo not given), the “log(1/C)” value came to 4.09.

Take `CCCCN(CCCC)CC(O)c1cc(-c2ccc(Cl)cc2)nc(-c2ccc(Cl)cc2)c1` (stereo not given): the “log(1/C)” value is on record as 3.84.

Consider `CCCCNCC(O)c1cc(-c2ccc(Cl)cc2)nc(-c2ccc(Cl)cc2)c1` (stereo not given), for which the “log(1/C)” value was 3.56.

In the case of `CCCNCC(O)c1cc(-c2ccc(C(F)(F)F)cc2)nc(-c2ccc(C(F)(F)F)cc2)c1` (stereo not given), the “log(1/C)” value came to 4.03.

On to `CCCC(CCC)NCC(O)c1cc(-c2ccc(C(F)(F)F)cc2)nc(-c2ccc(C(F)(F)F)cc2)c1` (stereo not given), for which the “log(1/C)” value came to 4.35.

`CCCCN(CCCC)CC(O)c1cc(-c2ccc(C(F)(F)F)cc2)nc(-c2ccc(C(F)(F)F)cc2)c1.O=C(O)CCC(=O)O` (stereo not given): the “log(1/C)” value was determined as 4.23.

In the case of `OC(CC1CCCCN1)c1cc(-c2ccc(C(F)(F)F)cc2)nc(-c2ccc(C(F)(F)F)cc2)c1` (stereo not given), the “log(1/C)” value came out at 4.19.

Turning to `OC(CNC1CCCCC1)c1cc(-c2ccc(C(F)(F)F)cc2)nc(-c2ccc(C(F)(F)F)cc2)c1` (stereo not given), the “log(1/C)” value is listed as 4.17.

Take `CCCCCNCC(O)c1cc(-c2ccc(C(F)(F)F)cc2)nc(-c2ccc(C(F)(F)F)cc2)c1` (stereo not given): the “log(1/C)” value is recorded as 4.17.

Take `CCCCNCC(O)c1cc(-c2ccc(C(F)(F)F)cc2)nc(-c2ccc(C(F)(F)F)cc2)c1` (stereo not given): the “log(1/C)” value was determined as 4.16.

Turning to `CCC(C)NCC(O)c1cc(-c2ccc(C(F)(F)F)cc2)nc(-c2ccc(C(F)(F)F)cc2)c1` (stereo not given), the “log(1/C)” value was determined as 4.15.

Consider `CCCC(CCC)N(CC(O)c1cc(-c2ccc(C(F)(F)F)cc2)nc(-c2ccc(C(F)(F)F)cc2)c1)C(CCC)CCC` (stereo not given), for which the “log(1/C)” value is 4.15.

`CCCC(CCC)NCC(O)c1cc(-c2ccc(Cl)cc2)nc(-c2ccc(Cl)cc2)c1` (stereo not given): the “log(1/C)” value is reported as 4.13.

Consider `CCC(C)NCC(O)c1cc(-c2ccc(Cl)cc2)nc(-c2ccc(Cl)cc2)c1` (stereo not given), for which the “log(1/C)” value was found to be 4.09.

With `CCCCCN(CCCCC)CC(O)c1cc(-c2ccc(C(F)(F)F)cc2)nc(-c2ccc(C(F)(F)F)cc2)c1` (stereo not given), the “log(1/C)” value is reported as 3.97.

Take `CCCCCCNCC(O)c1cc(-c2ccc(C(F)(F)F)cc2)nc(-c2ccc(C(F)(F)F)cc2)c1` (stereo not given): the “log(1/C)” value was 3.96.

`CCCCNCC(O)c1cc(-c2ccc(Br)cc2)nc(-c2ccc(C(F)(F)F)cc2)c1` (stereo not given): the “log(1/C)” value was 3.94.

Take `CCCCNCC(O)c1cc(-c2cccc(C(F)(F)F)c2)nc(-c2cccc(C(F)(F)F)c2)c1` (stereo not given): the “log(1/C)” value was 3.94.

Regarding `OC(CNC1CCC1)c1cc(-c2ccc(C(F)(F)F)cc2)nc(-c2ccc(C(F)(F)F)cc2)c1` (stereo not given), the “log(1/C)” value was found to be 3.85.

As for `OC(CC1CCCCN1)c1cc(-c2ccc(Cl)cc2)nc(-c2ccc(Cl)cc2)c1` (stereo not given), the “log(1/C)” value was determined as 3.83.

Turning to `CCCCCCCCNCC(O)c1cc(-c2ccc(C(F)(F)F)cc2)nc(-c2ccc(C(F)(F)F)cc2)c1` (stereo not given), the “log(1/C)” value is recorded as 3.76.

In the case of `CCNCC(O)c1cc(-c2ccc(C(F)(F)F)cc2)nc(-c2ccc(C(F)(F)F)cc2)c1` (stereo not given), the “log(1/C)” value was found to be 3.72.

Consider `CCCCN(CCCC)CC(O)c1cc(-c2ccc(Cl)cc2)nc(-c2ccc(Cl)cc2)c1.O=C(O)CCC(=O)O` (stereo not given), for which the “log(1/C)” value amounted to 3.71.

For `CCCCCCCNCC(O)c1cc(-c2ccc(C(F)(F)F)cc2)nc(-c2ccc(C(F)(F)F)cc2)c1` (stereo not given), the “log(1/C)” value was 3.67.

Consider `CCCCN(CCCC)CC(O)c1cc(-c2ccc(Br)cc2)nc(-c2ccc(C(F)(F)F)cc2)c1` (stereo not given), for which the “log(1/C)” value turned out to be 3.62.

Regarding `CCCCN(C)CC(O)c1cc(-c2ccc(Cl)cc2)nc(-c2ccc(Cl)cc2)c1` (stereo not given), the “log(1/C)” value is 3.59.

In the case of `CCC(C)N(C)CC(O)c1cc(-c2ccc(Cl)cc2)nc(-c2ccc(Cl)cc2)c1` (stereo not given), the “log(1/C)” value is 3.59.

Consider `CCCC[N+]([O-])(CCCC)CC(O)c1cc(-c2ccc(Cl)cc2)nc(-c2ccc(Cl)cc2)c1` (stereo not given), for which the “log(1/C)” value was 3.57.

With `CCCCN(CCCC)CC(O)c1cc(-c2ccc(Cl)cc2)nc(-c2ccc(Br)cc2)c1` (stereo not given), the “log(1/C)” value is reported as 3.36.

`CCCCN(CCCC)CC(O)c1cc(-c2ccc(Br)cc2)nc(-c2ccc(Br)cc2)c1` (stereo not given): the “log(1/C)” value was 3.31.

On to `CCCN(CCC)CC(O)c1cc(-c2ccc(Cl)cc2)nc(-c2ccc(Cl)cc2)c1` (stereo not given), for which the “log(1/C)” value was determined as 3.3.

For `CC(C)CN(C)CC(O)c1cc(-c2ccc(Cl)cc2)nc(-c2ccc(Cl)cc2)c1` (stereo not given), the “log(1/C)” value is 3.29.

In the case of `CCCCN(CCCC)CC(O)c1cc(-c2ccc(F)cc2)nc(-c2ccc(F)cc2)c1` (stereo not given), the “log(1/C)” value is given as 3.23.

Take `OC(CNC12CC3CC(CC(C3)C1)C2)c1cc(-c2ccc(Cl)cc2)nc(-c2ccc(Cl)cc2)c1` (stereo not given): the “log(1/C)” value is recorded as 3.23.

As to `OC(C[N+]12CCC(CC1)CC2)c1cc(-c2ccc(Cl)cc2)nc(-c2ccc(Cl)cc2)c1` (stereo not given), the “log(1/C)” value is listed as 3.21.

Consider `CCN(CC)CC(O)c1cc(-c2ccc(Cl)cc2)nc(-c2ccc(Cl)cc2)c1` (stereo not given), for which the “log(1/C)” value is reported as 3.19.

`CN(C)CC(O)c1cc(-c2ccc(Cl)cc2)nc(-c2ccc(Cl)cc2)c1` (stereo not given): the “log(1/C)” value was 3.18.

Regarding `CCCCCCN(CCCCCC)CC(O)c1cc(-c2ccc(Cl)cc2)nc(-c2ccc(Cl)cc2)c1` (stereo not given), the “log(1/C)” value was 3.18.

With `CCCCN(CCCC)CC(O)c1cc(-c2ccc(C(F)(F)F)cc2)nc(-c2ccc(Cl)c(Cl)c2)c1` (stereo not given), the “log(1/C)” value was 3.16.

Take `CCN(CC)CC(O)c1cc(-c2ccc(Br)cc2)nc(-c2ccc(Br)cc2)c1` (stereo not given): the “log(1/C)” value is 3.13.

Turning to `CCCCCN(CCCCC)CC(O)c1cc(-c2ccc(Cl)cc2)nc(-c2ccc(Cl)cc2)c1` (stereo not given), the “log(1/C)” value amounted to 3.13.

For `CCN(CC)CC(O)c1cc(-c2ccc(Cl)c(Cl)c2)nc(-c2ccc(Cl)c(Cl)c2)c1` (stereo not given), the “log(1/C)” value came out at 3.04.

On to `CCCCN(CCCC)CC(O)c1cc(-c2ccc(Cl)cc2)nc(-c2ccc(Cl)c(Cl)c2)c1` (stereo not given), for which the “log(1/C)” value was found to be 3.

With `CCCCN(CCCC)CC(O)c1cc(-c2ccccc2)nc(-c2ccc(Cl)cc2)c1` (stereo not given), the “log(1/C)” value is 2.91.

Regarding `CCCCN(CCCC)CC(O)c1cc(-c2ccc(Cl)cc2)nc(-c2ccc(C(F)(F)F)cc2)c1` (stereo not given), the “log(1/C)” value worked out at 3.43.

Regarding `CCCCN(CCCC)CC(O)c1cc(-c2cccc(C(F)(F)F)c2)nc(-c2ccc(Cl)c(Cl)c2)c1` (stereo not given), the “log(1/C)” value worked out at 2.9.

For the molecule `CCCCN(CCCC)CC(O)c1cc(-c2ccc(Cl)cc2)nc(-c2ccc(OC)cc2)c1` (stereo not given), the “log(1/C)” value is listed as 2.84.

As to `CCCC[N+]([O-])(CCCC)CC(O)c1cc(-c2ccc(Cl)c(Cl)c2)nc(-c2ccc(Cl)c(Cl)c2)c1` (stereo not given), the “log(1/C)” value was determined as 2.72.

For the molecule `CCCCN(CCCC)CC(O)c1cc(-c2ccc(OC)cc2)nc(-c2ccc(Cl)c(Cl)c2)c1` (stereo not given), the “log(1/C)” value is given as 2.68.

Consider `CCCCN(CCCC)CC(O)c1cc(-c2ccc(Cl)c(Cl)c2)nc(-c2ccc(Cl)c(Cl)c2)c1` (stereo not given), for which the “log(1/C)” value is 2.63.

With `CCCCCCCN(CCCCCCC)CC(O)c1cc(-c2ccc(Cl)cc2)nc(-c2ccc(Cl)cc2)c1` (stereo not given), the “log(1/C)” value is listed as 2.67.

With `CCCCCCN(CCCCCC)CC(O)c1cc(-c2ccc(F)cc2)nc(-c2ccc(F)cc2)c1` (stereo not given), the “log(1/C)” value is given as 2.58.

Consider `CCCCCCCN(CCCCCCC)CC(O)c1cc(-c2ccc(F)cc2)nc(-c2ccc(F)cc2)c1` (stereo not given), for which the “log(1/C)” value is on record as 2.55.

In the case of `CCCCN(CCCC)CC(O)c1cc(-c2ccccc2)nc(-c2ccccc2)c1` (stereo not given), the “log(1/C)” value was determined as 2.51.

Turning to `CCCCN(CCCC)CC(O)c1cc(-c2ccc(OC)cc2)nc(-c2ccc(OC)cc2)c1` (stereo not given), the “log(1/C)” value is on record as 2.17.

`CCCCN(CCCC)CC(O)c1cc(/C=C/c2ccc(C(F)(F)F)cc2)nc(-c2ccc(C(F)(F)F)cc2)c1` (stereo not given): the “log(1/C)” value was determined as 4.26.

With `CCCCNCC(O)c1cc(/C=C/c2ccc(C(F)(F)F)cc2)nc(-c2ccc(C(F)(F)F)cc2)c1` (stereo not given), the “log(1/C)” value is 3.89.

For `CCCC(CCC)NCC(O)c1cc(/C=C/c2ccc(C(F)(F)F)cc2)nc(/C=C/c2ccc(C(F)(F)F)cc2)c1` (stereo not given), the “log(1/C)” value is 4.24.

In the case of `CCCCN(CCCC)CC(O)c1cc(/C=C/c2ccc(Cl)cc2)nc(/C=C/c2ccc(Cl)cc2)c1` (stereo not given), the “log(1/C)” value is reported as 4.18.

`CCCCN(CCCC)CC(O)c1cc(/C=C/c2ccc(C(F)(F)F)cc2)nc(C(=O)c2ccc(C(F)(F)F)cc2)c1` (stereo not given): the “log(1/C)” value was determined as 3.91.

As to `CCCCN(CCCC)CC(O)c1cc(/C=C/c2ccc(Cl)cc2)cc(C(F)(F)F)c1` (stereo not given), the “log(1/C)” value is on record as 4.37.

With `CCCC(CCC)NCC(O)c1cc(-c2ccc(C(F)(F)F)cc2)nc(C(F)(F)F)c1` (stereo not given), the “log(1/C)” value is 4.47.

For the molecule `OC(CC1CCCCN1)c1cc(-c2ccc(C(F)(F)F)cc2)nc(C(F)(F)F)c1` (stereo not given), the “log(1/C)” value was 4.32.

As for `CCCCN(CCCC)CC(O)c1cc(-c2ccc(C(F)(F)F)cc2)nc(C(F)(F)F)c1` (stereo not given), the “log(1/C)” value is recorded as 4.13.

With `CCCCNCC(O)c1cc(-c2ccc(C(F)(F)F)cc2)nc(C(F)(F)F)c1` (stereo not given), the “log(1/C)” value worked out at 4.08.

On to `CCCCNCC(O)c1cc(-c2ccccc2C(F)(F)F)nc(C(F)(F)F)c1` (stereo not given), for which the “log(1/C)” value is given as 3.78.

Consider `CCC(CC)NCC(O)c1cc(-c2ccc(C(F)(F)F)cc2)nc(C(F)(F)F)c1` (stereo not given), for which the “log(1/C)” value amounted to 3.28.

`CC(C)CCCN(CCC(C)C)CC(O)c1cc(-c2ccc(C(F)(F)F)cc2)nc(C(F)(F)F)c1` (stereo not given): the “log(1/C)” value was determined as 3.04.

For `CCCCN(CCCC)CC(O)c1cc2ccc(C(F)(F)F)cc2c2cc(Cl)sc12` (stereo not given), the “log(1/C)” value was 3.84.

With `CCCCN(CCCC)CC(O)c1cc2c(Cl)cc(Cl)cc2c2cc(Cl)sc12` (stereo not given), the “log(1/C)” value came out at 3.53.

On to `CCCCCCCN(CCCCCCC)CC(O)c1cc2c(Cl)cc(Cl)cc2c2cc(C)sc12` (stereo not given), for which the “log(1/C)” value turned out to be 3.48.

Consider `CCCCN(CCCC)CC(O)c1cc2ccc(Br)cc2c2cc(Cl)sc12` (stereo not given), for which the “log(1/C)” value is given as 3.43.

Take `CCCCCCCN(CCCCCCC)CC(O)c1cc2ccc(C(F)(F)F)cc2c2cc(Cl)sc12` (stereo not given): the “log(1/C)” value turned out to be 3.38.

Regarding `CCCCN(CCCC)CC(O)c1cc2c(Cl)cc(Cl)cc2c2cc(C)sc12` (stereo not given), the “log(1/C)” value came to 3.3.

Take `CCCCCCCN(CCCCCCC)CC(O)c1cc2c(Cl)cc(Cl)cc2c2ccsc12` (stereo not given): the “log(1/C)” value is reported as 3.

In the case of `CCCCN(CCCC)CC(O)c1cc2c(Cl)cc(Cl)cc2c2ccsc12` (stereo not given), the “log(1/C)” value was determined as 3.2.

Turning to `CCCCN(CCCC)CC(O)c1cc2sccc2c2cc(Cl)sc12` (stereo not given), the “log(1/C)” value came to 3.36.

Turning to `CCCCCCCN(CCCCCCC)CC(O)c1cc2ccc(C(F)(F)F)cc2c2sccc12` (stereo not given), the “log(1/C)” value is listed as 3.36.

In the case of `CCCCN(CCCC)CC(O)c1cc2c(Cl)cc(Cl)cc2c2sccc12` (stereo not given), the “log(1/C)” value stood at 3.28.
